Molecular target: T1, EGFR (Homo sapiens, UniProt P00533)
T1 construct: Add 7 ug A431 cell lysate per well (EGFR source); endogenous in cells; host or cells: A431
Assay: EGFR ELISA assay (in vitro kinase activity, EGFR captured from A431 cell lysate)
Assay type: biochemical
Parameters: concentration or dose not given beside the values
Summary of the method: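 EGFR from A431 lysate was captured on anti-EGFR antibody-coated plates and preincubated with compounds for 30 min. Autophosphorylation ran 5 min with 3 uM ATP and 5 mM MnCl2 (final), stopped with 20 mM EDTA. Phosphotyrosine was detected by anti-pTyr ELISA with ABTS/H2O2, read at 410 nm.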

T1 sequence (P00533 25-1210): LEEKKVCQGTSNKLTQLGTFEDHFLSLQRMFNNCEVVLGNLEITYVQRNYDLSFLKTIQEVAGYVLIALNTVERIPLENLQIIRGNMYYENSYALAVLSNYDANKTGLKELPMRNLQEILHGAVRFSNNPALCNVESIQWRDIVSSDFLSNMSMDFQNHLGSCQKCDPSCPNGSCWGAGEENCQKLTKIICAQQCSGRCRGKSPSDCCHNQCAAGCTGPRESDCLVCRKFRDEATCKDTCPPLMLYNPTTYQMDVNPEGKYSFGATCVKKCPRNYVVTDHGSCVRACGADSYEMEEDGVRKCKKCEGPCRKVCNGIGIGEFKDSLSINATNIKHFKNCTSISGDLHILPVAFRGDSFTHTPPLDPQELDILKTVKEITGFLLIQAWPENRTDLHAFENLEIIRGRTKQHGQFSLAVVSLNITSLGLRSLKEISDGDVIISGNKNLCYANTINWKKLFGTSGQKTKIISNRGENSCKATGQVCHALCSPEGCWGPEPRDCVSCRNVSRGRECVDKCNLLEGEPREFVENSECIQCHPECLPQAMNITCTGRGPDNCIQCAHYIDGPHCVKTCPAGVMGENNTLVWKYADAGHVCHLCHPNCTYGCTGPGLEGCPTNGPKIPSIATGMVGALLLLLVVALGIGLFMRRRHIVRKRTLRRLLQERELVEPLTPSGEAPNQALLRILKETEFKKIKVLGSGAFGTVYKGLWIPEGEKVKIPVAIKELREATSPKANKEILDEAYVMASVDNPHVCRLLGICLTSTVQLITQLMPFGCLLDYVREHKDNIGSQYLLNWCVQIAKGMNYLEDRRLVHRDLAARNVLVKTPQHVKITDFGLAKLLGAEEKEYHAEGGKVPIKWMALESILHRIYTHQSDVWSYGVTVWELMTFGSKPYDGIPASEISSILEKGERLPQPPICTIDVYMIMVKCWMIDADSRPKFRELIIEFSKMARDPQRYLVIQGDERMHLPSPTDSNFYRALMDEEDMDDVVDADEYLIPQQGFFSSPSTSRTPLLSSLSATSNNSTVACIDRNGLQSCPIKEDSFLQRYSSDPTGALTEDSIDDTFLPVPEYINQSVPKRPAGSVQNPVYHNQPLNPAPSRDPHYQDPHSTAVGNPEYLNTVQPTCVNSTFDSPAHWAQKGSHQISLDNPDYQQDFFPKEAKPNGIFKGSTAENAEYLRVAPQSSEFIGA

COc1cc(OC)c(OC)cc1C=C1C(=O)Nc2ccc(S(=O)(=O)N3CCOCC3)cc21 [10730/F03]
Biochem EGFR %Inhibition: 10.4%

From patent EP1247803A2, “Indolinone compounds suitable for modulation of protein kinases” (Sugen, Inc., priority 1996, dated 1998)
